Key:
[1] = tested on: MDA-MB-231 TNBC cells; assay: Cell proliferation / growth assay; format: cell-based, human; details: forced expression of β-catenin-S33Y or β-catenin N90; 72 hr
[2] = tested on: MCF7 breast cancer cells; assay: Clonogenic growth assay; format: cell-based, human
Description: (§1) Cell proliferation was measured 72 hr after SR-3029 or vehicle treatment using Cell-Titer Glo (Promega) according to the manufacturers' instructions. EC50 values were determined using non-linear regression and a four-parameter algorithm (GraphPad Prism5). For clonogenic assays, cells were plated in 6-well dishes in triplicate at a density of 500-1000 cells per well. After overnight incubation, SR-3029 or vehicle (DMSO) was added to media for 72 hr and cells were allowed to grow out for 7-10 days, during which media was changed every 2-3 days in the absence of compound. Colonies were fixed in 4% paraformaldehyde/PBS and stained with 0.5% methylene blue in 50% ethanol for 1 hr at room temperature and de-stained with water. Colonies with greater than 50 cells were counted using a low magnification light microscope.

[3] = tested on: MDA-MB-231 cells; assay: Clonogenic growth assay; format: cell-based, human
Description: as §1

[4] = tested on: CK1δ overexpressing breast cancer cells; assay: Apoptosis by PI/Annexin V FACS; format: cell-based, human; details: 72 hr treatment
Description: 2×10^5 cells seeded in triplicate in 6-well dishes were cultured with SR-3029 or vehicle for 72 hr. Cells were then harvested and stained with Annexin V-FITC and PI using the Annexin V-FITC Apoptosis Detection Kit (BioVision) per the manufacturer's instructions and analyzed using the LSRI II flow cytometer (Becton Dickinson). Staurosporine (Cell Signaling) treated cells (1 μM) were used as positive/compensation controls.

[5] = tested on: BT474 (HER2+) tumor xenografts; assay: Established orthotopic tumor xenograft; format: in vivo, nude mice; details: 20 mg/kg daily i.p.; tumors 100-mm^3 before treatment
Text: (§2) All animal studies are approved by the Scripps Florida IACUC. Stable pools of MDA-MB-231-Luc, MDA-MB-231, MDA-MB-468, SKBR3 or BT474 cells were established by injection of 2×10^6 cancer cells into the mammary fat pads of 6-week old female athymic nude mice (Charles River Laboratories). Establishment of BCM-4013 patient derived xenografts were as described (19). Briefly, fresh xenograft tumor fragments (˜1 mm^3) were transplanted into the cleared mammary fat pad of recipient SCID/Bg mice (Charles River Laboratories). Mice were treated with SR-3029 or vehicle (10:10:80, DMSO:Tween-80:Water) at 20 mg/kg daily by i.p. injection. Tumor volumes were measured as the indicated intervals using calipers or by luminescence imaging using the IVIS 100 imager (exposure time, 1-60 sec; binning 8; field of view 15-cm; f/stop 1; open filter) following subcutaneous injection of luciferin (15 mg/ml, Goldbio Technology). Average radiance (p/s/cm^2/sr) was determined from tumor region-of-interest (ROI) using Living-Image (Xenogen) analysis software.

[6] = tested on: MDA-MB-468 (TNBC) tumor xenografts; assay: Established orthotopic tumor xenograft; format: in vivo, nude mice; details: 20 mg/kg daily i.p.; tumors 100-mm^3 before treatment
Text: as §2

[7] = tested on: SKBR3 (HER2+) tumor xenografts; assay: Established orthotopic tumor xenograft; format: in vivo, nude mice; details: 20 mg/kg daily i.p.; tumors 100-mm^3 before treatment
Text: as §2

[8] = tested on: BCM-4013 PDX tumors; assay: Patient-derived xenograft (PDX) model; format: in vivo, SCID/Bg mice; details: 20 mg/kg daily i.p.
Text: as §2
For apoptotic detection in cryosections tumors and small intestines were fixed in 10% buffered formalin for 2 hr, incubated in 20% sucrose overnight and embedded in OCT. Frozen sections ([…]) were mounted and stained using the ApopTag Red In Situ Kit according to the manufacturer instructions (CHEMICON). […]

[9] = Tolerability of long-term daily dosing; format: in vivo, mice
Text: as §2
For apoptotic detection in cryosections tumors and small intestines were fixed in 10% buffered formalin for 2 hr, incubated in 20% sucrose overnight and embedded in OCT. Frozen sections ([…]) were mounted and stained using the ApopTag Red In Situ Kit according to the manufacturer instructions (CHEMICON). For H&E staining, tissues were fixed in 10% buffered formalin for 48 hr, transferred to 70% ethanol/PBS and embedded in paraffin. Staining was performed on […] sections following deparaffinization (AML Laboratories).

[10] = tested on: β-catenin/TCF transcriptional activity; assay: TCF-dependent luciferase reporter assay in MDA-MB-231 cells; format: cell-based, human; details: increasing doses, 6 hr
Description: (§3) MDA-MB-231 or HEK293 cells stably expressing the TCF luciferase reporter 7TFP (39) were transfected with β-catenin-S33Y or empty vector (pcDNA). After 18 hr cells were seeded onto a 96-well plate at a density of 6000 cells/well. After 24 hr cells were treated with SR-3029 or vehicle and incubated for 6 hr prior to addition of 1 μg/ml recombinant human Wnt3a (R&D Systems) or PBS. After 3 hr, reporter assays were performed using BriteLite Plus (Perkin Elmer), which was added in equal volume directly to the media and luminescence read using a Spectramax plate reader (Molecular Devices).

[11] = tested on: Wnt-3a-directed induction of the TCF reporter; assay: Wnt-3a-induced TCF-dependent luciferase reporter assay in HEK293T cells; format: cell-based, human
Description: as §3

[12] = tested on: CK1δ and CK1ε; details: cited from earlier work
[13] = tested on: kinome; details: cited from earlier work
[14] = in vivo; cited from earlier work

Fc1cccc(-n2cnc3c(NCc4nc5ccc(F)c(F)c5[nH]4)nc(N4CCOCC4)nc32)c1 [SR-3029]
growth inhibitory and apoptotic effects with constitutively active β-catenin [1]: sufficient to rescue the growth inhibitory and apoptotic effects
colony forming capacity [2]: no effect
sensitivity of MCF7 cells with forced overexpression of CK1δ ([2]; short-term and long-term growth assays, CK1δ vs GFP): sensitizes them to SR-3029
clonogenic growth and survival [3]: completely blocked
clonogenic growth inhibition with forced overexpression of CK1δ ([3]; CK1δ overexpressing vs GFP-expressing controls): sufficient to rescue the growth inhibitory effects
apoptosis [4]: selectively triggered rapid apoptosis
tumor growth [5]: marked tumor growth inhibition
tumor growth [6]: marked tumor growth inhibition
tumor growth [7]: marked tumor growth inhibition
tumor cell apoptosis (TUNEL) [8]: triggered tumor cell apoptosis
growth of PDX tumors ([8]; p=0.0002): significantly inhibited the growth
tolerability: body weight, blood chemistry and tissue integrity by histochemistry ([9]; long-term daily dosing (48 days), 20 mg/kg i.p.): well tolerated, with no overt toxicity
small intestine apoptosis, TUNEL staining ([9]; long-term treatment): failed to detect evidence of apoptosis
small intestine integrity, H&E staining ([9]; long-term treatment): no gross morphological defects
endogenous β-catenin/TCF transcriptional activity [10]: markedly reduced
Wnt-3a-directed induction of the TCF reporter ([11]; 1 μg/ml Wnt-3a, 3 hr): abolished
TCF reporter activity with constitutively active β-catenin (S33Y) ([11]; forced expression of β-catenin S33Y): refractory
type of inhibition, potency and selectivity [12]: ATP competitive inhibitor with exceptional potency and selectivity
off-target kinase affinity ([13]; CDK4, MYLK4 and FLT3, in addition to CK1δ and CK1ε): weaker affinity for only three kinases
fraction of the kinome inhibited [13]: 1%
pharmacokinetic properties [14]: amenable for in vivo studies

Reference: patent US10603322B2, “Therapeutic targeting of casein kinase 1δ in breast cancer” (The Scripps Research Institute, priority 2015, dated 2020)
